Series [1] is described as follows: in vitro. The conditions noted are these: bovine, serum, Half-Life, Serum Half-Lives of NTPs and AZT Triphosphate Mimics.
The nature of series [2]: in vitro. The conditions noted are these: human, pH 7.4.
Series [3] can be described thus: Compound toxicity in CEM-SS cells (MTS staining). The conditions noted are these: human, read-out: CEM-SS TC50. Format: cell-based.
Series [4] concerns HIV-1RF. Put plainly: Anti-HIV-1 cytoprotection assay in CEM-SS cells. The conditions noted are these: Human immunodeficiency virus 1, 144 h; CEM-SS cells infected with HIV-1RF, MOI approximately 0.01, 6 days, MTS; read-out: CEM-SS IC50 (Anti-HIV Screening). Format: cell-based.
Series [5] has as its system Escherichia coli. Put plainly: Antimicrobial assay, minimal inhibitory concentration. Format: cell-based. The conditions noted are these: Escherichia coli, read-out: E. coli MIC.

One molecule from patent US20040059104A1, “Nucleotide mimics and their prodrugs” (priority 2002, published 2004) can be followed below.

Read-outs that look alike come from different tables or passages of the source.

What is called half-life is the time in which the quantity being followed falls by half. A word on the IC50: it is the concentration that gives 50% inhibition. As a reminder, the MIC is the lowest concentration that inhibits growth of the organism. As to `[BH3-][P+](O)(OCC1OC(n2cc(C)c(=O)[nH]c2=O)CC1N=[N+]=[N-])OP(=O)(O)C(F)(F)P(=O)(O)O` (single isomer, unassigned) [Compound 27-isomer 1, 3′-Azido-3′-deoxythymidine 5′-α-P-borano-β,γ-(difluoromethylene)triphosphate], the half-life at 500 μM in series [1] and in series [2] was more than 48 h in each case. Also, the CC50 in series [3] was more than 200 µM. The concentration for half-maximal inhibition (IC50) in series [4] came out at 1.64 µM. The minimal inhibitory concentration (MIC) in series [5] (overnight at 37° C., tested 0-200 μg/ml, NA = Not active) is 60 µg/mL; in series [5] (value in brackets beside the μg/ml value) it was 111 µM.
